For this experiment, the system named is Canine Purkinje fiber. The experiment is described as follows: In vitro electro-physiological screen using canine Purkinje fibers (action potential characteristics, microelectrode). Type of experiment: cell-based. Particulars: for Emax at 100 µM / Emax at 30 µM / Emax at 10 µM: read-out: MaxAPD95: maximum observed effect on APD95 from control value; for EC10: read-out: C10 APD95: concentration of drug which causes a 10% increase or decrease (-) in APD95 from control value; for EC20: read-out: C20 APD95: concentration of drug which causes a 20% increase or decrease (-) in APD95 from control value; for Vmax: change in the rate of rise of phase 0 of the action potential from control value (in words): concentration not given, NE = no effect; for inhibition at 100 µM: at 100 (concentration, μM). On the procedure:
The primary method for evaluating these compounds as antiarrhythmic agents was an in vitro electro-physiological screen using canine Purkinje fibers. Using conventional microelectrode techniques the effects of the drugs on the action potential characteristics of the Purkinje fiber were measured. Both Class I and Class III antiarrhythmic agents can be disinguished using this method.

The mark [1] stands for this setting: Canis lupus familiaris, purkinje, basic cycle length 1000 milliseconds.
Setting [2] is: Canis lupus familiaris, purkinje, normal stimulated beat, basic cycle length 1000 milliseconds, NR = not reached.
The mark [3] stands for this setting: Canis lupus familiaris, purkinje.
The mark [4] stands for this setting: Canis lupus familiaris, purkinje, at 10 μM, basic cycle length 1000 milliseconds.
Setting [5] is: Canis lupus familiaris, purkinje, read-out: Vmax: change in the rate of rise of phase 0 of the action potential from control value.
The mark [6] stands for this setting: normal stimulated beat, basic cycle length 1000 milliseconds, NR = not reached.
Where [7] appears, read: Canis lupus familiaris, purkinje, at 10 (concentration, μM), read-out: Vmax: change in the rate of rise of phase 0 of the action potential from control value.

Counter-ions that a name gives are not always drawn. Like-named read-outs stand apart in the source and are kept apart here.

The values below come from patent publication US4613609A, “Antiarrhythmic imidazoliums” (Schering A. G., priority 1984, dated 1986).

For the compound `O=C(Cn1ccnc1)c1ccc([N+](=O)[O-])cc1` [II-3, 2-(1H-Imidaz-1-yl)-1-(4-nitrophenyl)ethanone hydrochloride], the Emax at 100 µM under setting [1] was 29%. Further, under setting [2], the EC10 worked out at 20 µM and the EC20 was 50 µM.

Turning to `O=[N+]([O-])c1ccc(CCn2ccnc2)cc1` [II-8, 1-[2-(4-Nitrophenyl)ethyl]-1H-imidazole hydrochloride], the Emax at 100 µM under setting [1] is 29%. Moreover, under “Canis lupus familiaris, purkinje, at 0.1 (concentration, μM), read-out: Vmax: change in the rate of rise of phase 0 of the action potential from control value”, the inhibition at 0.1 µM was 15%. For the same compound, under setting [2], the EC10 is 7 µM and the EC20 worked out at 30 µM.

As to `CCCCCCC[n+]1ccn(CCCCc2ccc(NC(C)=O)cc2)c1.Cc1ccc(S(=O)(=O)[O-])cc1` [Compound I-14, 1-[4-(4-(Acetylamino)phenyl)butyl]-3-heptylimidazolium 4-methylbenzenesulfonate], the “Vmax: change in the rate of rise of phase 0 of the action potential from control value (in words)” value (shortened to “Vmax: change in the rate of rise … (in words)”) is listed as “increased”. In addition, under setting [3], the EC10 came out at 13 µM, the EC20 turned out to be 30 µM and the Emax at 30 µM came to 21%.

For `O=[N+]([O-])c1ccc(C(O)Cn2ccnc2)cc1` (stereo not drawn) [II-6, α-(4-Nitrophenyl)-1H-imidazole-1-ethanol], under setting [1], the Emax at 100 µM was 28%. Under setting [2], the EC10 came out at 15 µM and the EC20 was 43 µM.

Consider `CS(=O)(=O)Nc1ccc(CCn2ccnc2)cc1` [II-7, N-[4-[2-(1H-Imidazol-1-yl)ethyl]phenyl]methanesulfonamide], for which the Emax at 100 µM under setting [1] was 47%. For the same compound, under setting [2], the EC10 was 2 µM and the EC20 was 10 µM.

As to `Cc1n(C)cc[n+]1CCCCc1ccc(NS(C)(=O)=O)cc1` [Compound I-30, 1,2-Dimethyl-3-[4-[4-[[methanesulfonyl]amino]phenyl]butyl]imidazolium methanesulfonate], the Emax at 10 µM under setting [4] amounted to 23%. Moreover, under setting [2], the EC10 worked out at 1 µM and the EC20 worked out at 7 µM.

Consider `CCCCC[n+]1ccn(CCCCc2ccc(Cl)cc2)c1` [Compound I-20, 1-[4-(4-Chlorophenyl)butyl]-3-pentylimidazolium dihydrogenphosphate], for which the Emax at 10 µM under setting [4] was 23%. Moreover, under setting [2], the EC10 was 0.8 µM and the EC20 amounted to 6 µM.

As to `Cc1n(CCCCc2ccc(Cl)cc2)cc[n+]1C` [Compound I-34, 1-[4-(4-Chlorophenyl)butyl]-2,3-dimethylimidazolium chloride], under setting [4], the Emax at 10 µM stood at 25%. Besides, under setting [2], the EC10 is 1.4 µM and the EC20 turned out to be 6 µM.

`Cn1cc[n+](CC(=O)c2ccc(NS(C)(=O)=O)cc2)c1` [Compound I-44, 1-Methyl-3-[2-[4-((methylsulfonyl)amino)phenyl]-2-oxoethyl]-1H-imidazoliumbromide]: under setting [4], the Emax at 10 µM came out at 38%. Moreover, under setting [2], the EC10 came out at 1 µM and the EC20 amounted to 2.3 µM.

With `CS(=O)(=O)Nc1ccc(C(=O)Cn2ccnc2)cc1` [II-2, N-[4-(1H-Imidaz-1-ylacetyl)phenyl]methanesulfonamide], the Emax at 100 µM under setting [1] was determined as 67%. Besides, the inhibition at 100 µM under setting [5] turned out to be 15%. Under setting [2], the EC10 was determined as 3 µM and the EC20 amounted to 14 µM.

For `CCCCCCCn1cc[n+](CCCCc2ccc(OC)cc2)c1.[Br-]` [Compound I-7], the “MaxAPD95: maximum observed effect on APD95 from control value” (at 10 μM, basic cycle length 1000 milliseconds) is 26%. The “Vmax: change in the rate of rise of phase 0 of the action potential from control value” (at 10 (concentration, μM), 10 µM) is -12%. For the same compound, under setting [6], the EC10 is recorded as 0.5 µM and the EC20 stood at 8 µM.

Regarding `CCCCn1cc[n+](CCCCc2ccc(Cl)cc2)c1` [Compound I-21, 1-Butyl-3-[4-(4-chlorophenyl)butyl]imidazolium dihydrogenphosphate], the Emax at 10 µM under setting [4] stood at 25%. Besides, under setting [2], the EC10 turned out to be 2 µM and the EC20 worked out at 6 µM.

With `CCCCCCC[n+]1ccn(C(C)CCCc2ccc(Cl)cc2)c1` (stereo not shown) [Compound I-25, 1-[4-(4-Chlorophenyl)-1-methylbutyl]-3-heptylimidazolium 4-methylbenzenesulfonate], under setting [3], the EC10 turned out to be 10 µM and the Emax at 10 µM was found to be 10%.

`C[n+]1ccn(CC(O)c2ccc(NS(C)(=O)=O)cc2)c1` (stereo not shown) [Compound I-38, 1-[2-Hydroxy-2-[4-[(methanesulfonyl)amino]phenyl]ethyl]-3-methylimidazolium iodide]: the Emax at 10 µM under setting [4] stood at 63%. For the same compound, under setting [7], the inhibition at 10 µM worked out at 5%. In addition, under setting [2], the EC10 came to 0.3 µM and the EC20 was determined as 0.8 µM.

In the case of `Nc1ccc(C(=O)Cn2ccnc2)cc1` [II-5, 1-(4-Aminophenyl)-2-(1H-imidazol-1-yl)ethanone], the “Vmax: change in the rate of rise … (in words)” value is “Minimal”. Also, under setting [4], the Emax at 10 µM was determined as 13%. Further, the EC10 under setting [2] was 4 µM.

Turning to `CCCCCCCn1cc[n+](CC(=O)c2ccc(NS(C)(=O)=O)cc2)c1` [Compound I-39, 1-Heptyl-3-[2-[4-[(methanesulfonyl)amino]phenyl]-2-oxoethyl]imidazolium br omide], the Emax at 10 µM under setting [4] was 21%. In addition, under setting [2], the EC10 amounted to 1.7 µM and the EC20 turned out to be 9 µM.

`Cn1cc[n+](CCc2ccc(NS(C)(=O)=O)cc2)c1` [Compound I-43, 1-Methyl-3-[2-[4-((methylsulfonyl)amino)phenyl]ethyl]-1H-imidazolium iodide]: under setting [4], the Emax at 10 µM was found to be 21%. Under setting [2], the EC10 is 2 µM and the EC20 turned out to be 8 µM.

Consider `CCCCCCC[n+]1ccn(CCC#Cc2ccc(Cl)cc2)c1` [Compound I-29, 1-[4-(4-Chlorophenyl)-3-butynyl]-3-heptylimidazolium 4-methylbenzenesulfonate], for which, under setting [3], the EC10 turned out to be 20 µM and the Emax at 30 µM came out at 15%. For the same compound, under setting [5], the inhibition at 20 µM was 20%.

`O=[N+]([O-])c1ccc(CCCCn2ccnc2)cc1` [II-1, 1-[4-(4-Nitrophenyl)butyl]imidazole hydrochloride]: under setting [4], the Emax at 10 µM amounted to 27%. Under setting [2], the EC10 was determined as 1.2 µM and the EC20 was 4 µM.

For `CCC[n+]1ccn(CCCCc2ccc(Cl)cc2)c1.O=P([O-])(O)O` [Compound I-16, 1-[4-(4-Chlorophenyl)butyl]-3-propylimidazolium dihydrogenphosphate], the Emax at 10 µM under setting [4] worked out at 11%. The EC10 under setting [2] is 6 µM. The “Vmax: change in the rate of rise of phase 0 of the action potential from control value” (at >10 (concentration, μM)) is -20%.

For `CCCCCCC[n+]1ccn(C/C=C\Cc2ccc(Cl)cc2)c1` [Compound I-42, (Z)-1-[4-(4-Chlorophenyl)-2-butenyl]-3-heptylimidazolium dihydrogenphosphate], the Emax at 100 µM under setting [1] stood at 12%. Further, under setting [5], the inhibition at 100 µM turned out to be 26%. Further, the EC10 under setting [2] came out at 38 µM.

In the case of `CS(=O)(=O)Nc1ccc(C(O)Cn2ccnc2)cc1` (stereo not shown) [II-4, N-[4-(1-Hydroxy-2-(1H-imidazol-1-yl)ethyl]phenyl]methanesulfonamide], the Emax at 10 µM under setting [4] is 23%. For the same compound, the inhibition at 10 µM under setting [7] was found to be 15%. Under setting [2], the EC10 was 2 µM and the EC20 is 7 µM.

Take `CCCCCCC[n+]1ccn(CCCCc2ccc(Cl)cc2)c1` [Compound I-1, 1-[4-(4-Chlorophenyl)butyl]-3-heptylimidazolium chloride]: the Emax at 30 µM (Canis lupus familiaris, purkinje, at 30 μM, basic cycle length 1000 milliseconds) was found to be 27%. Also, the inhibition at 15 µM (Canis lupus familiaris, purkinje, at 15 (concentration, μM), read-out: Vmax: change in the rate of rise of phase 0 of the action potential from control value) worked out at 20%. Moreover, the EC10 under setting [2] was 12 µM.

For `CCCCCCC[n+]1ccn(CCCCc2ccc(F)cc2)c1` [Compound I-19, 1-[4-(4-Fluorophenyl)butyl]-3-heptylimidazolium dihydrogenphosphate], the Emax at 10 µM under setting [4] was 20%. The inhibition at 10 µM under setting [7] stood at 6%. Besides, under setting [2], the EC10 was determined as 1 µM and the EC20 worked out at 10 µM.

In the case of `CCCCCCCn1cc[n+](CCCCc2ccc(NS(C)(=O)=O)cc2)c1.O=P([O-])(O)O` [Compound I-22, 1-Heptyl-3-[4-[4-[[(methyl)sulfonyl]amino]phenyl]butyl]imidazolium dihydrogenphosphate], the “Vmax: change in the rate of rise … (in words)” value is “Minimal”. Further, under setting [4], the Emax at 10 µM is 39%. Besides, under setting [2], the EC10 came out at 1.3 µM and the EC20 came to 3 µM.
